“Also recorded” adds a separate entry of the source.
test system: TR146 cells; assay: Mucus production in TR146 cells (PAS staining, image analysis); format: cell-based, human; settings: 0.5% FCS, 16 h incubation
Description: To evaluate possible effects of compatible solutes on mucus production an in vitro cell culture model was used. For this purpose a mucus producing cell line, TR146, served as a model for the situation in the human mouth. The cells were incubated with ectoine and other substances. After treatment the cells were stained with PAS (Periodic Acid-Schiff) to determine the mucus content.
TR146 cells were seeded and grown on glass plates in 96 wells until they reached nearly confluence. The glass plates were coated with Poly-L-Lysine to ensure a good attachment of the cells. After reaching confluence the cells were set to 0.5% FCS (Fetal Calf Serum) and were incubated with ectoine, glucosylglycerole and prostaglandine for 16 h, whereas the control sample was not treated further. Prostaglandine is known in the literature to stimulate mucus production (Tani et al., Biol Pharm Bull 25 (1), 2002, 14-18).
After the incubation time, cells were stained with a PAS staining kit from Sigma Aldrich to stain the whole mucus on top of the cells. For analysis pictures were taken with the Dino Eye Capture Camera. The pictures were afterwards analyzed with Image J software.
These areas were marked with the Image software Image J and the pixel area was determined. The average results were given as percentage relative to the control (=100%) (FIG. 2).

| SMILES | Mucus production (PAS-stained pixel area relative to control = 100%) |
| --- | --- |
| OCC(CO)O[C@H]1O[C@H](CO)[C@@H](O)[C@H](O)[C@H]1O [glucosylglycerol] | showed a tendency to stimulate the mucus production; also recorded: did so, too, although to a lesser extent |
| CCCCC[C@H](O)/C=C/[C@H]1[C@H](O)CC(=O)[C@@H]1C/C=C\CCCC(=O)O [Prostaglandin E2, reference compound] | showed an induction of mucus production |
| CC1=NC(C(=O)O)CCN1 (stereo not drawn) [Ectoine, 1,4,5,6-tetrahydro-2-methyl-pyrimidine-4-carboxylic acid] | showed a tendency to stimulate the mucus production; also recorded: did so, too, although to a lesser extent |

— patent US20170202835A1, “OSMOLYTE-CONTAINING PREPARATION FOR THE TREATMENT OF DRY MUCOUS MEMBRANES” (Bitop AG, priority 2007, published 2017)
